pKd: −log10 of the molar value. Where a SMILES comes first, the peptide text is derived from it. Bridges are numbered along the chain shown (N, C = ends). The star is where a group is joined. X5 = O=C(CCCCCn1cc(CCCC(=O)*)nn1)NC(COCc1cn(CCOCCOCCOCCOC[C@H]2OC[C@H](Nc3nccc(C(F)(F)F)n3)[C@@H](O)[C@H]2O)nn1)COCc1cn(CCOCCOCCOCCOC[C@H]2OC[C@H](Nc3nccc(C(F)(F)F)n3)[C@@H](O)[C@H]2O)nn1; PEG4 = NCCOCCOCCOCCOCCC(=O)O
Target: T1, ASGPR (Homo sapiens, UniProt P07306)
T1 sequence (P07306 1-291): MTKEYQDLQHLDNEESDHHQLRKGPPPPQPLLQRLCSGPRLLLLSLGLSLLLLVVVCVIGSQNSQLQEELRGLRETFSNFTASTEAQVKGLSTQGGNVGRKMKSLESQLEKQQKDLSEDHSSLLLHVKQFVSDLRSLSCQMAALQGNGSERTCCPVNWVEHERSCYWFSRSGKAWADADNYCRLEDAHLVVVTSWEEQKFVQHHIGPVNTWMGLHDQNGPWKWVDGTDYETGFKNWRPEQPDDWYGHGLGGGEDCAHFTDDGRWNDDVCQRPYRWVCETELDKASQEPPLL
Assay: Affinity to ASGPR by surface plasmon resonance (SPR)

pKd	Structure (SMILES)
< 4.70	O[C@@H]1[C@H](O)[C@@H](Nc2nccc(C(F)(F)F)n2)CO[C@@H]1c1nc2ccc(Br)cc2[nH]1 [A94, (2R,3R,4R,5S)-2-(6-bromo-1H-benzo[d]imidazol-2-yl)-5-((4-(trifluoromethyl)pyrimidin-2-yl)amino)tetrahydro-2H-pyran-3,4-diol]
6.30 to 7.00	[N-]=[N+]=NCCCCCC(=O)NC(COCCC(=O)NCCOCCOCCOCCOC[C@@]12CO[C@@H](O1)[C@H](Nc1nc(Cl)ns1)[C@@H](O)[C@H]2O)COCCC(=O)NCCOCCOCCOCCOC[C@@]12CO[C@@H](O1)[C@H](Nc1nc(Cl)ns1)[C@@H](O)[C@H]2O [A14, 3,3′-((2-(6-azidohexanamido)propane-1,3-diyl)bis(oxy))bis(N-(1-((1S,2R,3R,4R,5S)-4-((3-chloro-1,2,4-thiadiazol-5-yl)amino)-2,3-dihydroxy-6,8-dioxabicyclo[3.2.1]octan-1-yl)-2,5,8,11-tetraoxatridecan-13-yl)propanamide)]
5.00 to 6.00	OC[C@H]1OC[C@H](Nc2nccnc2C(F)(F)F)[C@@H](O)[C@H]1O [A101, (2R,3R,4R,5S)-2-(hydroxymethyl)-5-((3-(trifluoromethyl)pyrazin-2-yl)amino)tetrahydro-2H-pyran-3,4-diol]
5.00 to 6.00	CCOC(=O)c1cnc(C(F)(F)F)nc1N[C@H]1[C@H]2OC[C@](CO)(O2)[C@H](O)[C@@H]1O [A110, ethyl 4-(((1S,2R,3R,4R,5S)-2,3-dihydroxy-1-(hydroxymethyl)-6,8-dioxabicyclo[3.2.1]octan-4-yl)amino)-2-(trifluoromethyl)pyrimidine-5-carboxylate]
< 4.70	C=CCO[C@H]1O[C@H](CO)[C@H](O)[C@H](O)[C@H]1N [A52, (2R,3R,4R,5R,6S)-6-(allyloxy)-5-amino-2-(hydroxymethyl)tetrahydro-2H-pyran-3,4-diol]
< 4.70	NC(=O)c1sc(N[C@H]2CO[C@H](CO)[C@H](O)[C@@H]2O)nc1C(F)(F)F [A54, 2-(((3S,4R,5R,6R)-4,5-dihydroxy-6-(hydroxymethyl)tetrahydro-2H-pyran-3-yl)amino)-4-(trifluoromethyl)thiazole-5-carboxamide]
5.00 to 6.00	C=CCO[C@H]1O[C@H](Cn2cc(CO)nn2)[C@H](O)[C@H](O)[C@H]1NC(=O)C(F)(F)F [A63, N-((2S,3R,4R,5R,6R)-2-(allyloxy)-4,5-dihydroxy-6-((4-(hydroxymethyl)-1H-1,2,3-triazol-1-yl)methyl)tetrahydro-2H-pyran-3-yl)-2,2,2-trifluoroacetamide]
5.00 to 6.00	O[C@@H]1[C@H](O)[C@@H](Nc2cncc(C(F)(F)F)n2)CO[C@@H]1CNc1ccccc1 [A95, (2R,3R,4R,5S)-2-((phenylamino)methyl)-5-((6-(trifluoromethyl)pyrazin-2-yl)amino)tetrahydro-2H-pyran-3,4-diol]
> 6.00	C=CCO[C@H]1O[C@H](Cn2ccnn2)[C@H](O)[C@H](O)[C@H]1Nc1nccc(C(F)(F)F)n1 [A69, (2R,3R,4R,5R,6S)-2-((1H-1,2,3-triazol-1-yl)methyl)-6-(allyloxy)-5-((4-(trifluoromethyl)pyrimidin-2-yl)amino)tetrahydro-2H-pyran-3,4-diol]
> 7.00	O=C(O)CNC(COCCC(=O)NCCOCCOCCOCCOC[C@H]1OC[C@H](Nc2cncc(C(F)(F)F)n2)[C@@H](O)[C@H]1O)COCCC(=O)NCCOCCOCCOCCOC[C@H]1OC[C@H](Nc2cncc(C(F)(F)F)n2)[C@@H](O)[C@H]1O [A31, (1,39-bis((2R,3R,4R,5S)-3,4-dihydroxy-5-((6-(trifluoromethyl)pyrazin-2-yl)amino)tetrahydro-2H-pyran-2-yl)-15,25-dioxo-2,5,8,11,18,22,29,32,35,38-decaoxa-14,26-diazanonatriacontan-20-yl)glycine]
> 7.00	O=[N+]([O-])c1ccc(NCCOCCOCCOCCOC[C@H]2OC[C@@H](Nc3nc(Cl)ns3)[C@@H](O)[C@H]2O)c([N+](=O)[O-])c1 [Compound 24, (2R,3R,4R,5R)-5-((3-chloro-1,2,4-thiadiazol-5-yl)amino)-2-(13-((2,4-dinitrophenyl)amino)-2,5,8,11-tetraoxatridecyl)tetrahydro-2H-pyran-3,4-diol]
> 6.00	C=CCO[C@H]1O[C@H](Cn2ccnn2)[C@H](O)[C@H](O)[C@H]1NC(=O)C(F)(F)F [A70, N-((2S,3R,4R,5R,6R)-6-((1H-1,2,3-triazol-1-yl)methyl)-2-(allyloxy)-4,5-dihydroxytetrahydro-2H-pyran-3-yl)-2,2,2-trifluoroacetamide]
< 4.70	N=C(N)N[C@H]1CO[C@H](COCc2ccccc2)[C@H](OCc2ccccc2)[C@@H]1OCc1ccccc1 [A73, 1-((3S,4R,5R,6R)-4,5-bis(benzyloxy)-6-((benzyloxy)methyl)tetrahydro-2H-pyran-3-yl)guanidine]
> 6.00	CN(C[C@H]1OC[C@H](Nc2cncc(C(F)(F)F)n2)[C@@H](O)[C@H]1O)c1ccccc1 [A99, (2R,3R,4R,5S)-2-((methyl(phenyl)amino)methyl)-5-((6-(trifluoromethyl)pyrazin-2-yl)amino)tetrahydro-2H-pyran-3,4-diol]
> 6.00	O=C(NC[C@H]1OC[C@H](Nc2cncc(C(F)(F)F)n2)[C@@H](O)[C@H]1O)C12CC(C1)C2 [A102, N-(((2R,3R,4R,5S)-3,4-dihydroxy-5-((6-(trifluoromethyl)pyrazin-2-yl)amino)tetrahydro-2H-pyran-2-yl)methyl)bicyclo[1.1.1]pentane-1-carboxamide]
> 6.00	O[C@@H]1[C@H](O)[C@@H](Nc2nccc(C(F)(F)F)n2)CO[C@@H]1Cn1ccnn1 [A67, (2R,3R,4R,5S)-2-((1H-1,2,3-triazol-1-yl)methyl)-5-((4-(trifluoromethyl)pyrimidin-2-yl)amino)tetrahydro-2H-pyran-3,4-diol]
5.00 to 6.00	C=CCO[C@H]1O[C@H](Cn2cc(CO)nn2)[C@H](O)[C@H](O)[C@H]1Nc1nccc(C(F)(F)F)n1 [A64, (2R,3R,4R,5R,6S)-6-(allyloxy)-2-((4-(hydroxymethyl)-1H-1,2,3-triazol-1-yl)methyl)-5-((4-(trifluoromethyl)pyrimidin-2-yl)amino)tetrahydro-2H-pyran-3,4-diol]
< 7.00	OC[C@H]1OCC(Nc2cc(C(F)(F)F)[nH]n2)[C@@H](O)[C@H]1O (stereo in doubt) [A93, (2R,3R,4R,5S)-2-(hydroxymethyl)-5-((5-(trifluoromethyl)-1H-pyrazol-3-yl)amino)tetrahydro-2H-pyran-3,4-diol]
> 6.00	OC[C@@]12CO[C@@H](O1)[C@H](Nc1cccc(C(F)(F)F)n1)[C@@H](O)[C@H]2O [A87, (1S,2R,3R,4R,5S)-1-(hydroxymethyl)-4-((6-(trifluoromethyl)pyridin-2-yl)amino)-6,8-dioxabicyclo[3.2.1]octane-2,3-diol]
> 6.00	OC[C@@]12CO[C@@H](O1)[C@H](Nc1cc(Cl)cnc1Cl)[C@@H](O)[C@H]2O [A44, (1S,2R,3R,4R,5S)-4-[(2,5-dichloro-3-pyridyl)amino]-1-(hydroxymethyl)-6,8-dioxabicyclo[3.2.1]octane-2,3-diol]
> 7.00	O=C(CCOCc1ccc(-c2cccc3ccncc23)c(OCCc2ccc(-c3cccc4ccncc34)cc2)c1)NCCOCCOCCOCCOC[C@@]12CO[C@@H](O1)[C@H](Nc1cncc(C(F)(F)F)n1)[C@@H](O)[C@H]2O [Compound 56]
> 7.00	NC(COCCC(=O)NCCOCCOCCOCCOC[C@H]1OC[C@H](Nc2cncc(C(F)(F)F)n2)[C@@H](O)[C@H]1O)COCCC(=O)NCCOCCOCCOCCOC[C@H]1OC[C@H](Nc2cncc(C(F)(F)F)n2)[C@@H](O)[C@H]1O [A131]
5.00 to 6.00	N#Cc1cc(N[C@H]2[C@H]3OC[C@](CO)(O3)[C@H](O)[C@@H]2O)cnc1Cl [A41, 2-chloro-5-[[(1S,2R,3R,4R,5S)-2,3-dihydroxy-1-(hydroxymethyl)-6,8-dioxabicyclo[3.2.1]octan-4-yl]amino]pyridine-3-carbonitrile]
> 7.00	O=C(O)CNC(COCCC(=O)NCCOCCOCCOCCOC[C@H]1OC[C@H](Nc2nccc(C(F)(F)F)n2)[C@@H](O)[C@H]1O)COCCC(=O)NCCOCCOCCOCCOC[C@H]1OC[C@H](Nc2nccc(C(F)(F)F)n2)[C@@H](O)[C@H]1O [A132]
> 6.00	COc1cc(N[C@H]2[C@H]3OC[C@](CO)(O3)[C@H](O)[C@@H]2O)nc(C(F)(F)F)n1 [A47, (1S,2R,3R,4R,5S)-1-(hydroxymethyl)-4-((6-methoxy-2-(trifluoromethyl)pyrimidin-4-yl)amino)-6,8-dioxabicyclo[3.2.1]octane-2,3-diol]

Structure (SMILES)	pKd
CC(C)C[C@@H]1NC(=O)[C@@H](NC(=O)[C@@H](NC(=O)[C@H](CCC(N)=O)NC(=O)[C@H](Cc2cnc[nH]2)NC(=O)CCOCCOCCOCCOCCNC(=O)CCCc2cn(CCCCCC(=O)NC(COCc3cn(CCOCCOCCOCCOC[C@H]4OC[C@H](Nc5nccc(C(F)(F)F)n5)[C@@H](O)[C@H]4O)nn3)COCc3cn(CCOCCOCCOCCOC[C@H]4OC[C@H](Nc5nccc(C(F)(F)F)n5)[C@@H](O)[C@H]4O)nn3)nn2)C(C)C)CSSC[C@@H](C(=O)N[C@@H](Cc2ccccc2)C(=O)N[C@@H](CO)C(=O)N[C@H](C(N)=O)[C@@H](C)O)NC(=O)[C@H](C(C)C)NC(=O)[C@@H]2CCCN2C(=O)[C@H](CCCNC(=N)N)NC(=O)CNC(=O)[C@H](CCCNC(=N)N)NC(=O)[C@H](Cc2ccc(O)cc2)NC(=O)[C@H](CO)NC1=O [Compound 57] ({X5-PEG4}-HQVCLSYRGRPVCFST-NH2; disulfide 4-13)	> 7.00

Reference: patent US12091402B2 (Avilar Therapeutics, Inc., priority 2021, dated 2024)
